# Assay results: patent US20250042916A1 (ACONCAGUA BIO, INC., priority 2023, published 2025)
# Target: human calcitonin receptor (CTR) and RAMP3 (AMY3) in COS-7 cells (Homo sapiens, UniProt O60896+P30988)
# Experiment: Amylin Receptor cAMP Assay I
# Assay type: cell-based
# Conditions: values marked *: Amylin Receptor cAMP Assay I; COS-7/AMY3 cells; read-out: Amylin Receptor cAMP Stimulation Activity: EC50
# Source text: Amylin Receptor cAMP Assay I
# AMYRs are heterodimers of the class B calcitonin (CT) G-protein-coupled receptor (CTR) and receptor activity-modifying proteins (RAMPs). All three RAMPs can interact with the CTR and form AMY1, AMY2, AMY3 with RAMP1, RAMP2 and RAMP3, respectively. Like other class B1 GPCRs, the CT receptor family is canonically coupled to Gs-mediated cAMP production, and measurement of cAMP accumulation has been the primary assay used to determine peptide selectivity and potency.
# To optimize functional activity directed toward Gas coupling, COS-7 cells were stably transfected with human calcitonin receptor (CTR) and RAMP3, simultaneously. 100× concentration of compound working solutions were prepared (Agilent Technologies Bravo) with 4-fold serial dilution in 384-well Echo LDV plate (Labcyte, Cat #LP-0200). 100 nL/well 100× concentration of compound working solutions were moved to 384-well white low volume plate (Greiner, Cat #784075) using Labcyte ECHO550. 1×10^5 cells/mL COS-7/CTR or COS-7/AMY3 (HD Biosciences) cell suspensions prepared with assay buffer [DPBS containing 0.5 mM IBMX (Sigma, Cat #15879) and 0.1% BSA (GENVIEW, Cat #FA016-100 g)], 10 μL cell suspensions were added to each well of previous generated assay plate which already contains 100 nL compound at 100× concentration using ThermoFisher Multidrop Combi (1000 cells/well). Seal the plate and incubate at 37° C. with 5% CO2 for 30 min.
# After incubation, the cAMP assay signal was generated using cAMP Hi-range Kit (Cisbio). 5 μL cAMP-d2 working solution was added to each well, followed by 5 μL Anti-cAMP antibody-cryptate working solution which was added to each well using ThermoFisher Multidrop Combi. The samples were then incubated at room temperature for 1 hour protected from light. the fluorescence was read at 665 and 615 nm with Reader PerkinElmer EnVision.
# Chain of human calcitonin receptor (CTR) and RAMP3 (AMY3) in COS-7 cells (P30988 25-474): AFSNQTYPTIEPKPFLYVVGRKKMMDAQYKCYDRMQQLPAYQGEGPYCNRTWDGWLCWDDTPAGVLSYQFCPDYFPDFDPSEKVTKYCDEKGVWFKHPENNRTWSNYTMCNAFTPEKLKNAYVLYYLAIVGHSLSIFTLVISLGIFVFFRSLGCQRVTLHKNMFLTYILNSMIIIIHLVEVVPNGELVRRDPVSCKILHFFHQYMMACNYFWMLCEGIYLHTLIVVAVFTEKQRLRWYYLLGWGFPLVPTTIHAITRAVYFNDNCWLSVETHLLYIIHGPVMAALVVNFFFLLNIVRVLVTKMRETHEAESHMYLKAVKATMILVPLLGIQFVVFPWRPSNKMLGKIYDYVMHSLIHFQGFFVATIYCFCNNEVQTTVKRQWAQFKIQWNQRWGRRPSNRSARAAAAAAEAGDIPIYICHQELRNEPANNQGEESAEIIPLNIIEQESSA
# Chain of human calcitonin receptor (CTR) and RAMP3 (AMY3) in COS-7 cells (O60896 24-148): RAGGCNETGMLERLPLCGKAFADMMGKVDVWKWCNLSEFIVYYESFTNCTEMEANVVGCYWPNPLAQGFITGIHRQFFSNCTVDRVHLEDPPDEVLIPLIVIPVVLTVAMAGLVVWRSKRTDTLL
row,EC50 [µM],SMILES
1,0.0372,"Cc1nnc(-c2c(CCc3ccc(F)cc3)nc(CC(C)C)c(C(N)=O)c2-c2ccc(C(=O)N[C@@H]3CCc4ncccc43)s2)o1 [Compound 123, (R)-4-(5-((6,7-dihydro-5H-cyclopenta[b]pyridin-5-yl)carbamoyl)thiophen-2-yl)-6-(4-fluorophenethyl)-2-isobutyl-5-(5-methyl-1,3,4-oxadiazol-2-yl)nicotinamide]"
2,0.0358,"Cc1nnc(-c2c(CCc3ccc(F)cc3)nc(CC(C)C)c(C(N)=O)c2-c2ccc(C(=O)N[C@H]3CCc4ncccc43)s2)o1 [Compound 124, (S)-4-(5-((6,7-dihydro-5H-cyclopenta[b]pyridin-5-yl)carbamoyl)thiophen-2-yl)-6-(4-fluorophenethyl)-2-isobutyl-5-(5-methyl-1,3,4-oxadiazol-2-yl)nicotinamide]"
3,0.212,"Cc1nnc(-c2c(CCc3ccc(F)cc3)nc(CC(C)C)c(C(N)=O)c2-c2ncc(C(=O)NCc3ccc(F)c(F)c3)s2)o1 [Compound 125, N-(3,4-difluorophenyl)methyl-2-{5-carbamoyl-2-[2-(p-fluorophenyl)ethyl]-6-isobutyl-3-(5-methyl-1,3,4-oxadiazol-2-yl)-4-pyridyl}-1,3-thiazole-5-carboxamide]"
4,0.162,"Cc1nnc(-c2c(CCc3ccc(F)cc3)nc(CC(C)C)c(C(N)=O)c2-c2ccc(C(=O)NCc3ccc(F)c(F)c3)cc2)o1 [Compound 126, 4-(p-{[(3,4-difluorophenyl)methyl]carbamoyl}phenyl)-6-[2-(p-fluorophenyl)ethyl]-2-isobutyl-5-(5-methyl-1,3,4-oxadiazol-2-yl)nicotinamide]"
5,0.495,"Cc1nnc(-c2c(CCc3ccc(F)cc3)nc(CC(C)C)c(C(N)=O)c2-c2cc3ccccc3s2)o1 [Compound 127, 4-(1-benzothiophen-2-yl)-6-[2-(p-fluorophenyl)ethyl]-2-isobutyl-5-(5-methyl-1,3,4-oxadiazol-2-yl)nicotinamide]"
6,0.162,"Cc1nnc(-c2c(CCc3ccc(F)cc3)nc(CC(C)C)c(C(N)=O)c2-c2ccc(C(=O)NCc3ccc(F)c(F)c3)o2)o1 [Compound 128, N-(3,4-difluorophenyl)methyl-5-{5-carbamoyl-2-[2-(p-fluorophenyl)ethyl]-6-isobutyl-3-(5-methyl-1,3,4-oxadiazol-2-yl)-4-pyridyl}-2-furamide]"
7,0.94,"Cc1nnc(-c2c(CCc3ccc(F)cc3)nc(CC(C)C)c(C(N)=O)c2-c2cc3cccc(Br)c3s2)o1 [Compound 129, 4-(7-bromo-1-benzothiophen-2-yl)-6-[2-(p-fluorophenyl)ethyl]-2-isobutyl-5-(5-methyl-1,3,4-oxadiazol-2-yl)nicotinamide]"
8,0.049,"Cc1nnc(-c2c(CCc3ccc(F)cc3)nc(CC(C)C)c(C(N)=O)c2-c2cc3ccnc(NCc4ccc(F)c(F)c4)c3o2)o1 [Compound 130, 4-(7-{[(3,4-difluorophenyl)methyl]amino}-1-oxa-6-aza-2-indenyl)-6-[2-(p-fluorophenyl)ethyl]-2-isobutyl-5-(5-methyl-1,3,4-oxadiazol-2-yl)nicotinamide]"
9,0.0025,"Cc1nnc(-c2c(CCc3ccc(F)cc3)nc(CC(C)C)c(C(N)=O)c2-c2cc3ncnc(NCc4ccc(F)c(F)c4)c3s2)o1 [Compound 132, 4-(4-((3,4-difluorobenzyl)amino)thieno[3,2-d]pyrimidin-6-yl)-6-(4-fluorophenethyl)-2-isobutyl-5-(5-methyl-1,3,4-oxadiazol-2-yl)nicotinamide]"
10,0.0069,"Cc1nnc(-c2c(CCc3ccc(F)cc3)nc(CC(C)C)c(C(N)=O)c2-c2cc3c(NCc4ccc(F)c(F)c4)nccc3s2)o1 [Compound 133, 4-(4-((3,4-difluorobenzyl)amino)thieno[3,2-c]pyridin-2-yl)-6-(4-fluorophenethyl)-2-isobutyl-5-(5-methyl-1,3,4-oxadiazol-2-yl)nicotinamide]"
11,1.16,"COCC1CN(c2nccc3cc(-c4c(C(N)=O)c(CC(C)C)nc(CCc5ccc(F)cc5)c4-c4nnc(C)o4)sc23)C1 [Compound 134, 6-(4-fluorophenethyl)-2-isobutyl-4-(7-(3-(methoxymethyl)azetidin-1-yl)thieno[2,3-c]pyridin-2-yl)-5-(5-methyl-1,3,4-oxadiazol-2-yl)nicotinamide]"
12,0.0067,"Cc1nnc(-c2c(CCc3ccc(F)cc3)nc(CC(C)C)c(C(N)=O)c2-c2cc3cccc(NCc4ccc(F)c(F)c4)c3s2)o1 [Compound 136, 4-(7-((3,4-difluorobenzyl)amino)benzo[b]thiophen-2-yl)-6-(4-fluorophenethyl)-2-isobutyl-5-(5-methyl-1,3,4-oxadiazol-2-yl)nicotinamide]"
13,0.0013,"Cc1nnc(-c2c(CCc3ccc(F)cc3)nc(CC(C)C)c(C(N)=O)c2-c2cc3cccc(N[C@@H]4CCc5ccccc54)c3s2)o1 [Compound 137, (R)-4-(7-((2,3-dihydro-1H-inden-1-yl)amino)benzo[b]thiophen-2-yl)-6-(4-fluorophenethyl)-2-isobutyl-5-(5-methyl-1,3,4-oxadiazol-2-yl)nicotinamide]"
14,2.26,"Cc1nnc(-c2c(CCc3ccc(F)cc3)nc(CC(C)C)c(C(N)=O)c2-c2cc3cccc(C#N)c3s2)o1 [Compound 138, 4-(7-cyano-1-benzothiophen-2-yl)-6-[2-(p-fluorophenyl)ethyl]-2-isobutyl-5-(5-methyl-1,3,4-oxadiazol-2-yl)nicotinamide]"
15,9.93,"Cc1nnc(-c2c(CCc3ccc(F)cc3)nc(CC(C)C)c(C(N)=O)c2-c2cc3c(N)cccc3s2)o1 [Compound 139, 4-(4-aminobenzo[b]thiophen-2-yl)-6-(4-fluorophenethyl)-2-isobutyl-5-(5-methyl-1,3,4-oxadiazol-2-yl)nicotinamide]"
16,0.177,"Cc1nnc(-c2c(CCc3ccc(F)cc3)nc(CC(C)C)c(C(N)=O)c2-c2ccc(CN[C@@H]3CCc4ccccc43)s2)o1 [Compound 140, 4-(5-{[(R)-1-indanylamino]methyl}-2-thienyl)-6-[2-(p-fluorophenyl)ethyl]-2-isobutyl-5-(5-methyl-1,3,4-oxadiazol-2-yl)nicotinamide]"
17,0.05,Cc1nnc(-c2c(CCc3ccc(F)cc3)nc(CC(C)C)c(C(N)=O)c2-c2ccc(CNC(=O)c3ccc(F)c(F)c3)s2)o1 [Compound 141]
18,0.374,"Cc1nnc(-c2c(CCc3ccc(F)cc3)nc(CC(C)C)c(C(N)=O)c2-c2ccc3c(c2)CCC3NCc2ccc(F)c(F)c2)o1 (stereo not drawn) [Compound 143, 4-(1-{[(3,4-difluorophenyl)methyl]amino}-5-indanyl)-6-[2-(p-fluorophenyl)ethyl]-2-isobutyl-5-(5-methyl-1,3,4-oxadiazol-2-yl)nicotinamide]"
19,6.29,Cc1nnc(-c2c(CCc3ccc(F)cc3)nc(CC(C)C)c(C(N)=O)c2CCOC(=O)NCc2ccc(F)c(F)c2)o1 [Compound 145]
20,0.973,"Cc1nnc(-c2c(OCc3ccc(F)cc3)nc(CC(C)C)c(C(N)=O)c2-c2ccc(C(=O)NCc3ccc(F)c(F)c3)s2)o1 [Compound 146, 4-[5-[(3,4-difluorophenyl)methylcarbamoyl]-2-thienyl]-6-[(4-fluorophenyl)methoxy]-2-isobutyl-5-(5-methyl-1,3,4-oxadiazol-2-yl)pyridine-3-carboxamide]"
21,0.0023,"CC(C)Cc1nc(CCc2ccc(F)cc2)c(-c2nnc(C(C)C)o2)c(-c2ccc(C(=O)NCc3ccc(F)c(F)c3)s2)c1C(N)=O [Compound 147, N-(3,4-difluorophenyl)methyl-5-{5-carbamoyl-2-[2-(p-fluorophenyl)ethyl]-6-isobutyl-3-(5-isopropyl-1,3,4-oxadiazol-2-yl)-4-pyridyl}-2-thenamide]"
